These results are taken from patent US12419873B2, “Use of JAK inhibitors in preparation of drugs for treating JAK kinase-related diseases” (ZHUHAI UNITED LABORATORIES CO., LTD., priority 2020, dated 2025).

Bounds are passed on as bounds.

One test has as its target JAK2 (Homo sapiens (Human), UniProt O60674). Description: In vitro activity test of JAK2 kinase. Conditions: read-out: JAK2 (IC50).
For a further test, the target named is JAK3 (Homo sapiens (Human), UniProt P52333). Kind of test: In vitro activity test of JAK3 kinase. The class given is biochemical. As to the method:
(§1) Recombinant human JAK1, JAK2, JAK3, TyK2 protease, main instruments and reagents were provided by Eurofins in the UK
(§2) All compounds were prepared into a 100% DMSO solution and reached 50 times the final determined concentration. The test compound was diluted by 3 times the concentration gradient, and the final concentration was 10 μM to 0.001 μM, 9 concentrations in total, and the content of DMSO in the detection reaction was 2%. The working stock solution of the compound was added to a determination hole as the first component of the reaction, and then the remaining components were added according to the detailed scheme determination below.
(§3) Mg/ATP mixture was added to start the reaction. After incubation at room temperature for 40 minutes, 0.5% phosphoric acid was added to stop the reaction.

The next test has as its target TYK2 (Homo sapiens (Human), UniProt P29597). Kind of test: In vitro activity test of TYK2 kinase. The class given is biochemical. As to the method:
as §1, §2, §3

For the next test, the target named is JAK1 (Homo sapiens (Human), UniProt P23458). Kind of test: In vitro activity test of JAK1 kinase. The class given is biochemical. As to the method:
as §1, §2, §3

JAK1, sequence (P23458 whole entry): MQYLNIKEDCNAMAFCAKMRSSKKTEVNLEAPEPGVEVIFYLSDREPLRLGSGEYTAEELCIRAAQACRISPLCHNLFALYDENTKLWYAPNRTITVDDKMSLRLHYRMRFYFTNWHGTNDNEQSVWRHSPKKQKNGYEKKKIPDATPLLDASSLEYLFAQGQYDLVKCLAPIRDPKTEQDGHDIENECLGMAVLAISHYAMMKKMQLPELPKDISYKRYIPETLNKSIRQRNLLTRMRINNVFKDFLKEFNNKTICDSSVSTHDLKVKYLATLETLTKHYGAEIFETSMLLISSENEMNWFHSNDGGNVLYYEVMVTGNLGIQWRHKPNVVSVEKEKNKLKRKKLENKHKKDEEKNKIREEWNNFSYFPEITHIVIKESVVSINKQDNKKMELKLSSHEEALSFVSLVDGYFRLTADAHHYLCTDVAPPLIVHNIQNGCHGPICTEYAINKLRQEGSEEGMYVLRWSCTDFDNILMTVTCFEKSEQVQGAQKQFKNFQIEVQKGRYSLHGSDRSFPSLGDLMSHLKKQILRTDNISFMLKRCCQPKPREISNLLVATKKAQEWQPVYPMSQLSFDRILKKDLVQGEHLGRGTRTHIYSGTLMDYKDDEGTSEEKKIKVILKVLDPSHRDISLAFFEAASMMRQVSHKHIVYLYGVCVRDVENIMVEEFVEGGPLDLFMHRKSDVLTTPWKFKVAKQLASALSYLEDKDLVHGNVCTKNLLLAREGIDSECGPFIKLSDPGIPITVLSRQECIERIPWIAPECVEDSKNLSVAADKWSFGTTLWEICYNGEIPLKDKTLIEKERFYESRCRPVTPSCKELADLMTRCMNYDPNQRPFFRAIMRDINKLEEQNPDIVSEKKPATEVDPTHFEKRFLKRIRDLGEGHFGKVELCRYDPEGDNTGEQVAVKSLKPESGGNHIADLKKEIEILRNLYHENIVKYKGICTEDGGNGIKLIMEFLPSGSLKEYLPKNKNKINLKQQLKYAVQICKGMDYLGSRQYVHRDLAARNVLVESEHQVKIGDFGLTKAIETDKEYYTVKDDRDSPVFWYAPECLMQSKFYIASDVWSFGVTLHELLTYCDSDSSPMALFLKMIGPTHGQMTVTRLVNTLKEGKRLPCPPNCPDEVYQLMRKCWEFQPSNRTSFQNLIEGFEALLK
JAK3, sequence (P52333 whole entry): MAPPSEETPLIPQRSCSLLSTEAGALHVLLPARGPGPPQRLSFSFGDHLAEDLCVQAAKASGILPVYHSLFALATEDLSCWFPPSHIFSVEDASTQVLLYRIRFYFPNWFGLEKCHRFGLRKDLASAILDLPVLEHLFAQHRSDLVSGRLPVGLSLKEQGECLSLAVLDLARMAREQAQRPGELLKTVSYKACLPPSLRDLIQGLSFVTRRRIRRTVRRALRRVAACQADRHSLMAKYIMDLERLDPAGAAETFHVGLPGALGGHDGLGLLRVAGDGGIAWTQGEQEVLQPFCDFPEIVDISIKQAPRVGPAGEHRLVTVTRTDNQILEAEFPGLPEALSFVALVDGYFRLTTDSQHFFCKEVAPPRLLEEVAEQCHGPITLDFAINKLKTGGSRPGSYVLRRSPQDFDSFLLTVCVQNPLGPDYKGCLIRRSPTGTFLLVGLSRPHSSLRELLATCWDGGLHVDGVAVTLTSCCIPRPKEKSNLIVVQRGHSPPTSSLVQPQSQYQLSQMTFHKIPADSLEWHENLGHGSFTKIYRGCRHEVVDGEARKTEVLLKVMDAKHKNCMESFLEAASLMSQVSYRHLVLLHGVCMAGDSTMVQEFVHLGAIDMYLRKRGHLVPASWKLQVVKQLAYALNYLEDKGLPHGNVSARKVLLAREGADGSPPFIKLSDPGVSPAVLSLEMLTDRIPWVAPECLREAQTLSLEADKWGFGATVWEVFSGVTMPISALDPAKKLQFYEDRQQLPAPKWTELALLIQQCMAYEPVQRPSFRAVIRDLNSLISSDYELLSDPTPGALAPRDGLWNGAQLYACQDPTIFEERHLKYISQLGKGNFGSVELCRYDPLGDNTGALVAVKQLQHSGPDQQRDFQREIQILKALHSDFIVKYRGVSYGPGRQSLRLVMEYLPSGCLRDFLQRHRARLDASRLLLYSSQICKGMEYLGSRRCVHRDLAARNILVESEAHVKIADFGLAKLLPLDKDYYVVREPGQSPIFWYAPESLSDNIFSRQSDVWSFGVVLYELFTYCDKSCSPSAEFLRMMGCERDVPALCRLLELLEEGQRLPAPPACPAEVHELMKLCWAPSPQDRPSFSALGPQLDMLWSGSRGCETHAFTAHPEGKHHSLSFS
TYK2, sequence (P29597 whole entry): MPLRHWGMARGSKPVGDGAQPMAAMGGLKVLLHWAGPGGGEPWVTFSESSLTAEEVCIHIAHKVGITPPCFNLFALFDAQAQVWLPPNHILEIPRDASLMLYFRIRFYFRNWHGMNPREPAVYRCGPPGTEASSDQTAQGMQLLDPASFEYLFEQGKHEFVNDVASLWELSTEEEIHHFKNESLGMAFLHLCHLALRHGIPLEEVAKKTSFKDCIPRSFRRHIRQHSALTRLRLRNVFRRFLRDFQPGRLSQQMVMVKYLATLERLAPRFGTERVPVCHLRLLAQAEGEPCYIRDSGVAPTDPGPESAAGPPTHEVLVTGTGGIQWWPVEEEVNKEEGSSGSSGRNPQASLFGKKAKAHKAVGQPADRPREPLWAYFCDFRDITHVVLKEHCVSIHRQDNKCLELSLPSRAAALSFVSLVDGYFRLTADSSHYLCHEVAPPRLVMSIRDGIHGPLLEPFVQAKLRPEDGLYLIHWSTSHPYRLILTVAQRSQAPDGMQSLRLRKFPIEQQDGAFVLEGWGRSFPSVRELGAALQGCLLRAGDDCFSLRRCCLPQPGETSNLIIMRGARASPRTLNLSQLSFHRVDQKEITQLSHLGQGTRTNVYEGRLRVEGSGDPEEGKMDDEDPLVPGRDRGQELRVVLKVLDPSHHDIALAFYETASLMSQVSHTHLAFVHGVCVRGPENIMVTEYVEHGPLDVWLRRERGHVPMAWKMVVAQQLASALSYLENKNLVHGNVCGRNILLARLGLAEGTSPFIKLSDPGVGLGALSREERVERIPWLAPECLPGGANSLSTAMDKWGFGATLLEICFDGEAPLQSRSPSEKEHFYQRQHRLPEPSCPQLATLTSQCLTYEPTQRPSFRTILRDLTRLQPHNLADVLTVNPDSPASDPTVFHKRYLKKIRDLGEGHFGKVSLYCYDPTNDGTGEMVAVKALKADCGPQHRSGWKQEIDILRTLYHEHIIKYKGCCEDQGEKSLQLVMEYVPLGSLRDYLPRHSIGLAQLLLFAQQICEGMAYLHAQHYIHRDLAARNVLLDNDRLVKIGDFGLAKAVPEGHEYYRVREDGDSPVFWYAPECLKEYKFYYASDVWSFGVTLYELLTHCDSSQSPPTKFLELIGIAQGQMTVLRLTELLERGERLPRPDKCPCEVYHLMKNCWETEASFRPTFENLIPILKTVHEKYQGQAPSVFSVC
JAK2, sequence (O60674 whole entry): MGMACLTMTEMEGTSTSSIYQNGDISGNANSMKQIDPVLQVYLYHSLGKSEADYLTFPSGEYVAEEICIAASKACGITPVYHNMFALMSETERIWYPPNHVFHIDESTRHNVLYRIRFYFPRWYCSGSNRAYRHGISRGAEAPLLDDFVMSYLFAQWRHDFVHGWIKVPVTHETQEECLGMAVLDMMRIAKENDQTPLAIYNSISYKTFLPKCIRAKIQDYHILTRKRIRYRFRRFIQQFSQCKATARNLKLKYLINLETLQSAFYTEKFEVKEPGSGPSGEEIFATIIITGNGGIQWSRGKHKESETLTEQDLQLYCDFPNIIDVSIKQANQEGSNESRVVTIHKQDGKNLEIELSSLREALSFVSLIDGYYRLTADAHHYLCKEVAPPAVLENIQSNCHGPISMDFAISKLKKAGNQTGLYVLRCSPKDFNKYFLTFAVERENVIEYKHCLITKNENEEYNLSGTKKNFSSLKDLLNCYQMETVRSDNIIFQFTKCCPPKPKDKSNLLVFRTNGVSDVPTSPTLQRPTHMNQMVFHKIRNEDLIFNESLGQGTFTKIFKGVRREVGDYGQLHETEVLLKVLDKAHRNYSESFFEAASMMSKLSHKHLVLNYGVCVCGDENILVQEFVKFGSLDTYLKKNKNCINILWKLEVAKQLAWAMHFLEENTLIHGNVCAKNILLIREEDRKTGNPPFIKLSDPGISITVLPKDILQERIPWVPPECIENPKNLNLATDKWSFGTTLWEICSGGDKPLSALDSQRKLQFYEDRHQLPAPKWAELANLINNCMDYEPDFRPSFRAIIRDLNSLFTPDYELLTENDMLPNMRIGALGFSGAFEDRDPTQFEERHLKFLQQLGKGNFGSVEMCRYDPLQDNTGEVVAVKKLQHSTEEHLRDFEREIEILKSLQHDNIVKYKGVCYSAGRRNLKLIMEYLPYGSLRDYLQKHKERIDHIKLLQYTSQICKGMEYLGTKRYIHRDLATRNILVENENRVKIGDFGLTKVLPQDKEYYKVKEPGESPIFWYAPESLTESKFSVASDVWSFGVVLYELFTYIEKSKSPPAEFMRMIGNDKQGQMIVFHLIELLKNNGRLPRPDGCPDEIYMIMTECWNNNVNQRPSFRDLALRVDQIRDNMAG

For orientation: IC50 means the concentration at which inhibition is half-maximal. For the compound `O=C(Nc1nc2cccc(C3CCC4(CC3)CCN(C(=O)C3CC3(F)F)C4)n2n1)C1CC1` (single isomer, unassigned) [Compound 5-7], the IC50 at JAK2 came out at 0.324 µM; on JAK3 it was 5.76 µM; against TYK2 it was 0.067 µM; at JAK1, 0.031 µM.

For the compound `O=C(Nc1nc2cccc(C3CCC4(CC3)CCN(C(=O)C3CC3(F)F)C4)n2n1)C1CC1` (single isomer, unassigned) [Compound 5-8], the IC50 was 0.789 µM at JAK2, 7.35 µM on JAK3, 0.692 µM at TYK2 and 0.075 µM against JAK1.

With `O=C(Nc1nc2cccc([C@H]3CCC4(CCN(C(=O)[C@@H]5CC5(F)F)CC4)C3)n2n1)C1CC1` (single isomer, unassigned) [Compound 6-7], the IC50 amounted to 0.998 µM at JAK2, 9.39 µM against JAK3, 0.829 µM at TYK2 and 0.063 µM at JAK1.

For `O=C(Nc1nc2cccc([C@@H]3CCC4(CCN(C(=O)[C@@H]5CC5(F)F)CC4)C3)n2n1)C1CC1` (single isomer, unassigned) [Compound 6-8], the IC50 at JAK2 is 1.92 µM; on JAK3, greater than 10 µM; at TYK2, 0.57 µM; against JAK1, 0.381 µM.

Consider `N#CCCN1CC2(CCC(c3cccc4nc(NC(=O)C5CC5)nn34)CC2)C1` [Compound 1-17], for which the concentration for half-maximal inhibition (IC50) against JAK3 is greater than 10 µM; against TYK2 it was 0.371 µM; against JAK1, 0.065 µM.

With `N#CCC(=O)N1CC2(CCC(F)(c3cccc4nc(NC(=O)C5CC5)nn34)CC2)C1` [Compound 4-6], the IC50 on JAK2 was 2.01 µM; on JAK3, 8.45 µM; on TYK2, 0.307 µM; against JAK1, 0.17 µM.

Take `O=C(Nc1nc2cccc([C@@H]3CCC4(C3)CN(C(=O)[C@@H]3CC3(F)F)C4)n2n1)C1CC1` [Compound 7-8]: the IC50 on JAK3 is greater than 10 µM; against TYK2, 0.404 µM; on JAK1, 0.176 µM.

Regarding `O=C(Nc1nc2cccc(C3CCC4(CC3)CN(C(=O)[C@H]3CC3(F)F)C4)n2n1)[C@H]1CC1(F)F` [Compound 8-6], the IC50 came to 0.11 µM on JAK2, 7.64 µM at JAK3, 0.127 µM against TYK2 and 0.014 µM against JAK1.

Turning to `N#CCN1CC2(CCC(c3cccc4nc(NC(=O)[C@H]5CC5(F)F)nn34)CC2)C1` [Compound 8-9], the IC50 is 3.67 µM at JAK2, greater than 10 µM at JAK3, 1.33 µM against TYK2 and 0.052 µM against JAK1.

Take `N#CCN1CC2(CCC(c3cccc4nc(NC(=O)[C@@H]5CC5(F)F)nn34)CC2)C1` [Compound 9-6]: the IC50 at JAK2 is 1.17 µM; on JAK3, greater than 10 µM; on TYK2, 1.39 µM; against JAK1 it was 0.432 µM.
